pIC50: −log10 of the molar value. Where a name gives a salt, the structure may show the parent alone.
Target: T1, human TRPM2 channels (Homo sapiens, UniProt O94759)
T1 construct: expressed in transfected cells
Experiment: whole cell patch clamp, inhibition of TRPM2 channel current
Type: cell-based
Conditions: HEK293 cells stably expressing human TRPM2, 500 μM ADPR
Procedure: The fused heterocyclic compound of the present invention has an inhibitory effect on the TRPM2 channel, and its pharmacological activity is measured using whole cell patch clamp technology, the corresponding steps are as follows: Incubating HEK293 cells stably expressing human TRPM2 channels in DMEM/F-12 medium containing 10% bovine serum, 50 units/mL of penicillin and […] of streptomycin under the condition of 5% CO2 and 37° C. The cells before testing are stored in the extracellular fluid (147 mM NaCl, 2 mM KCl, 1 mM MgCl2, 2 mM CaCl2, 10 mM HEPES, 13 mM glucose, pH 7.4). The electrode is filled with the electrode internal solution (147 mM NaCl, 0.05 mM EGTA, 1 mM MgCl2, 10 mM HEPES, 0.5 mM ADPR, pH=7.3), and the resistance is maintained at 3-5 M Ω. Administering ADPR into cells through electrodes, and detecting the ADPR concentration used to activate TRPM2 as 500 μM, when detecting a stable current, perfusing the corresponding concentration of fused heterocyclic compound II-1 into the extracellular fluid for at least 60 seconds. record the change in current magnitude using voltage ramp mode, changing the voltage from −100 mV to+100 mV within 500 ms, with a normal clamp voltage of 0 mV and a TRPM every 5 seconds; finally, replacing the extracellular fluid with a solution with pH=5.0 to block the TRPM2 current, the electrophysiological current test results obtained are shown in Table 1, and the electrophysiological current graph obtained is shown in FIG. 1. Similarly, administering corresponding concentrations of other fused heterocyclic compounds (II-2˜II-54, III-1˜III-11) into the extracellular fluid, taking electrophysiological tests using the same method, the results are shown in Table 1. The electrophysiological representative current graphs of some fused heterocyclic compounds (II-9, II-19, and II-36) inhibiting TRPM2 channel current are shown in FIG. 1.

T1 sequence (O94759 whole entry): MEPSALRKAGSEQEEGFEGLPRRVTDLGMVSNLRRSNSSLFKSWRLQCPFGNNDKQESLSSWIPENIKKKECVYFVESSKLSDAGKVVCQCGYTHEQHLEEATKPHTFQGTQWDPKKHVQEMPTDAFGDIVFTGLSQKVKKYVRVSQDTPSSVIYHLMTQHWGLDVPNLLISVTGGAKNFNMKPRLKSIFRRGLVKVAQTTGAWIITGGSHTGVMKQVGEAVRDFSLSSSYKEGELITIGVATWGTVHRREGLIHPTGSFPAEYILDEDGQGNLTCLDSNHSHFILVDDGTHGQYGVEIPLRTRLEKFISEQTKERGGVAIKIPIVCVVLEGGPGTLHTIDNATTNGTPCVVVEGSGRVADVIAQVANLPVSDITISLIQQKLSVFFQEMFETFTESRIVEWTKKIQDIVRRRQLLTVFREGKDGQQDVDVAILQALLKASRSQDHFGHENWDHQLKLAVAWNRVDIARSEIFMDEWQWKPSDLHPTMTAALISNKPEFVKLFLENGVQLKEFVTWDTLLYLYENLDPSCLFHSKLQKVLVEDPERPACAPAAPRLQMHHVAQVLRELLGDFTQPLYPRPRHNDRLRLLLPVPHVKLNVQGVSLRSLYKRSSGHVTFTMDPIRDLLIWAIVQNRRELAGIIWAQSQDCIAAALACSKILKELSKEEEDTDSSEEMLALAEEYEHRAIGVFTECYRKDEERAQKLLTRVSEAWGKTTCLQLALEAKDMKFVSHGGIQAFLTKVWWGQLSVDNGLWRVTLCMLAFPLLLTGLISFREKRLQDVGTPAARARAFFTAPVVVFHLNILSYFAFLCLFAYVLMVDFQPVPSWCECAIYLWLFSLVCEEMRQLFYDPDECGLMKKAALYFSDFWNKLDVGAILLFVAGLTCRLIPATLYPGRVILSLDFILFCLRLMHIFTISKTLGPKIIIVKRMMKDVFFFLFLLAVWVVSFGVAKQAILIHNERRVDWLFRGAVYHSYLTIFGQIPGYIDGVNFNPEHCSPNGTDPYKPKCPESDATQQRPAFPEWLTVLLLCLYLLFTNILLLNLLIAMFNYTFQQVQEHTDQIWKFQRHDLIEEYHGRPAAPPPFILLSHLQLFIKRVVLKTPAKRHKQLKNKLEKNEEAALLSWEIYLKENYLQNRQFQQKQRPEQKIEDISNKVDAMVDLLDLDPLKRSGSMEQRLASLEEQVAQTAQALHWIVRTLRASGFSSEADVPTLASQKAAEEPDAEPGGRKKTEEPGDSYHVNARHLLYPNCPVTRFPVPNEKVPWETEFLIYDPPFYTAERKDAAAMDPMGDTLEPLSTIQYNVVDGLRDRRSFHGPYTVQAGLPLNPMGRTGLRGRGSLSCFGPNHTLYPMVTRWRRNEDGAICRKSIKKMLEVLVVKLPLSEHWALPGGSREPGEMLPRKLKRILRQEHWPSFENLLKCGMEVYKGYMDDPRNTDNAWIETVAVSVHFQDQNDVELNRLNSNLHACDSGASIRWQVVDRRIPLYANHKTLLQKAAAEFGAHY

Compound	pIC50
5-((octanyloxy) (phenyl) methyl) indolizine-7-ethyl carboxylate [II-49]	4.30 to 4.70
CCCC(=O)OC(c1ccccc1)c1cc(C(=O)N(CC)CC)cc2cccn12 (stereo not shown) [II-51]	4.30 to 4.70
CCCC(=O)OC(c1ccccc1)c1cc(C(=O)OCC)cc2cccn12 (stereo not shown) [II-48]	4.70 to 5.00
COC(=O)c1cc(C(=O)c2ccc(F)cc2)n2cccc2c1 [II-4, 5-(4-Fluorobenzoyl) indolizine-7-methyl carboxylate]	4.70 to 5.00
O=C(c1ccccc1F)c1cc(C(=O)N2CCCC2)cc2cccn12 [II-33, (5-(2-fluorobenzoyl)indolizine-7-yl) (pyrrolidine-1-yl) ketone]	4.70 to 5.00
CCCOC(c1ccccc1)c1cc(C(=O)OCC)cc2cccn12 (stereo not shown) [II-54, 5-(Phenyl (Propyloxy) Methylindolizine-7-ethyl carboxylate]	4.70 to 5.00
CCOC(=O)c1cc(C(=O)c2ccccc2)n2ccnc2c1 [III-4, 5-benzimidazolo[1,2-a]pyridine-7-ethyl carboxylate]	4.70 to 5.00
O=C(c1ccccc1)c1cc(C(=O)N2CCCCC2)cc2nccn12 [III-10, (5-benzimidazole[1,2-a]pyridine-7-yl) (piperidin-1-yl) ketone]	4.70 to 5.00
CCOC(=O)c1cc(C(OC(C)=O)c2ccccc2)n2cccc2c1 (stereo not shown) [II-47, 5-(acetoxy (phenyl)methyl) indolizine-7-ethyl carboxylate]	4.70 to 5.00
CCNC(=O)c1cc(C(O)c2ccccc2)n2cccc2c1 (stereo not shown) [II-43, N-ethyl-5-(hydroxy(phenyl)methyl) indolizine-7-formamide]	4.70 to 5.00
O=C(c1ccccn1)c1cc(C(=O)N2CCNCC2)cc2cccn12 [II-40, hydrochloride]	4.70 to 5.00
CCN(CC)C(=O)c1cc(C(=O)c2ccccc2)n2ccnc2c1 [III-8, 5-Benzoyl-N,N-diethylimidazole[1,2-a]pyridine-7-formamide]	4.70 to 5.00
CN(C)C(=O)c1cc(C(=O)c2ccccc2)n2cccc2c1 [II-22, 5-benzoyl-N, N-dimethylindolizine-7-formamide]	4.70 to 5.00
CCOC(=O)c1cc(C(=O)c2cccc(OC)c2)n2cccc2c1 [II-12, Ethyl 5-(3-methoxybenzoyl) indolizine-7-carboxylate]	4.70 to 5.00
O=C(O)c1cc(C(O)c2ccccc2)n2cccc2c1 (stereo not shown) [II-42]	4.70 to 5.00
CN(C)C(=O)c1cc(C(=O)c2ccccc2)n2ccnc2c1 [III-6, 5-Benzoyl-N,N-dimethylimidazole[1,2-a]pyridine-7-formamide]	4.70 to 5.00
CCCCCCCC(=O)OC(c1ccccc1)c1cc(C(=O)N(CC)CC)cc2cccn12 (stereo not shown) [II-52]	4.30 to 4.70
CCN(CC)C(=O)c1cc(C(=O)c2ccccc2F)n2cccc2c1 [II-32, N, N-Diethyl-5-(2-fluorobenzoyl) indolizine-7-formamide]	4.70 to 5.00
CN(C)C(=O)c1cc(C(O)c2ccccc2)n2cccc2c1 (stereo not shown) [II-44, 5-(hydroxy(phenyl)methyl)-N, N-dimethylindolizine-7-formamide]	4.70 to 5.00

Compound	pIC50
O=C(c1ccccc1)c1cc(C(=O)N2CCNCC2)cc2cccn12 [II-37, (5-Benzimide-7-yl) (piperazin-1-yl) ketone hydrochloride]	4.70 to 5.00
O=C(O)c1cc(C(=O)c2ccccc2)n2ccnc2c1 [III-5, 5-benzimide azo [1,2-a]pyridine-7-carboxylic acid]	4.70 to 5.00
COC(=O)c1cc(C(=O)c2ccc(C)cc2)n2ccnc2c1 [III-3, 5-(4-methylbenzoyl) imidazolo [1,2-a]pyridine-7-methyl carboxylate]	4.70 to 5.00
COC(=O)c1cc(C(=O)c2cccs2)n2cccc2c1 [II-15, 5-(thiophen-2-carbonyl)indolizine-7-methyl carboxylate]	4.70 to 5.00
O=C(O)c1cc(C(=O)c2ccccc2)n2cccc2c1 [II-19, 5-benzimide-7-carboxylic acid]	4.70 to 5.00
CCN(CC)C(=O)c1cc(C(=O)c2ccccn2)n2cccc2c1 [II-38, N,N-Diethyl-5-pyridylimide-7-formamide hydrochloride]	4.30 to 4.70
O=C(c1ccccc1)c1cc(C(=O)N2CCOCC2)cc2cccn12 [II-30, (5-benzimide-7-yl) (morphyryl) ketone]	4.30 to 4.70
COC(=O)c1cc(C(=O)c2ccc(Cl)cc2)n2ccnc2c1 [III-2, 5-(4-chlorobenzoyl) imidazolo [1,2-a]pyridine-7-methyl carboxylate]	4.70 to 5.00
CCOC(=O)c1cc(C(O)c2ccccc2)n2ccnc2c1 (stereo not shown) [III-11, 5-(hydroxy (phenyl)methylimidazolo [1,2-a]pyridine-7-ethyl carboxylate]	4.30 to 4.70
CCN(CC)C(=O)c1cc(C(OC(C)=O)c2ccccc2)n2cccc2c1 (stereo not shown) [II-50]	4.70 to 5.00
O=C(c1ccccn1)c1cc(C(=O)N2CCNCC2)cc2cccn12 [II-36, (5-Pyridinyllin-2-yl) (Piperazin-1-yl) Methylketone]	4.30 to 4.70
CCNC(=O)c1cc(C(=O)c2ccccc2)n2cccc2c1 [II-21, 5-benzoyl-N-ethylindolizine-7-formamide]	4.70 to 5.00
O=C(c1ccccc1)c1cc(C(=O)N2CCCC2)cc2nccn12 [III-9]	4.70 to 5.00
O=C(c1ccccc1)c1cc(C(=O)N2CCCC2)cc2cccn12 [II-27, (5-benzoimide 7-yl) (pyrrolidine-1-yl) ketone]	4.70 to 5.00
CN1CCN(C(=O)c2cc(C(=O)c3ccccc3)n3cccc3c2)CC1 [II-31, (5-Benzimide-7-yl) (4-methylpiperazin-1-yl) ketone]	4.70 to 5.00
NC(=O)c1cc(C(=O)c2ccccc2)n2cccc2c1 [II-20, 5-benzimide-7-formamide]	4.70 to 5.00
CCN(C)C(=O)c1cc(C(O)c2ccccc2)n2cccc2c1 (stereo not shown) [II-46, N-ethyl-5-(hydroxy(phenyl)methyl)-N-methylindolizine-7-formamide]	4.70 to 5.00
CC(=O)c1cc(C(=O)c2ccccc2)n2cccc2c1 [II-3, 1-(5-Benzimide-7-yl) ethane-1-ketone]	4.70 to 5.00
O=C(c1ccccc1)c1cc(C(=O)N2CCCCC2)cc2cccn12 [II-28, (5-benzimide 7-yl) (piperidin-1-yl) ketone]	4.70 to 5.00

Second part, the compound after the results:

pIC50	Compound
4.70 to 5.00	CCOC(=O)c1cc(C(=O)c2ccc(F)cc2)n2cccc2c1 [II-5, 5-(4-fluorobenzoyl) indolizinee-7-ethyl carboxylate]
4.70 to 5.00	O=C(c1ccccn1)c1cc(C(=O)N2CCCC2)cc2cccn12 [II-35]
5.00 to 6.00	CON(C)C(=O)c1cc(C(=O)c2ccccc2)n2cccc2c1 [II-25, 5-Benzoyl-N-methoxy-N-methylindolizine-7-formamide]
5.00 to 6.00	CCOC(=O)c1cc(C(OC)c2ccccc2)n2cccc2c1 (stereo not shown) [II-53]
5.00 to 6.00	COC(=O)c1cc(C(=O)c2ccccn2)n2cccc2c1 [II-17, 5-methylpyridinimide-7-methyl carboxylate]
5.00 to 6.00	COC(=O)c1cc(C(=O)c2ccccc2F)n2cccc2c1 [II-8, 5-(2-Fluorobenzoyl) indolizine-7-methyl carboxylate]
5.00 to 6.00	CCN(CC)C(=O)c1cc(C(=O)c2ccccn2)n2cccc2c1 [II-34, N, N-Diethyl-5-pyridylimide-7-formamide]
5.00 to 6.00	CCOC(=O)c1cc(C(=O)c2ccccn2)n2cccc2c1 [II-18, 5-methylpyridinimide-7-ethyl carboxylate]
5.00 to 6.00	CCNC(=O)c1cc(C(=O)c2ccccc2)n2ccnc2c1 [III-7, 5-benzoyl-N-ethylimidazolo[1,2-a]pyridine-7-formamide]
5.00 to 6.00	O=C(c1ccccc1)c1cc(C(=O)N2CCC2)cc2cccn12 [II-26, azetidine-1-yl (5-benzoimide 7-yl) ketone]
5.00 to 6.00	CCOC(=O)c1cc(C(=O)c2cccc(Cl)c2)n2cccc2c1 [II-9, 5-(3-chlorobenzoyl) indolizine-7-ethyl carboxylate]
5.00 to 6.00	CCOC(=O)c1cc(C(=O)c2ccco2)n2cccc2c1 [II-14, 5-(furan-2-carbonyl) indolizine-7-ethyl carboxylate]
5.00 to 6.00	CCOC(=O)c1cc(C(=O)c2cccc(Br)c2)n2cccc2c1 [II-10, 5-(3-bromobenzoyl) indolizine-7-Ethyl carboxylate]
5.00 to 6.00	CCN(C)C(=O)c1cc(C(=O)c2ccccc2)n2cccc2c1 [II-24, 5-Benzoyl-N-ethyl-N-methylindolizine-7-formamide]
5.00 to 6.00	CCOC(=O)c1cc(C(=O)c2cccs2)n2cccc2c1 [II-16, 5-(thiophen-2-carbonyl) indolizine-7-ethyl carboxylate]
5.00 to 6.00	COC(=O)c1cc(C(=O)c2ccco2)n2cccc2c1 [II-13, 5-(furan-2-carbonyl) indolizine-7-methyl carboxylate]
5.00 to 6.00	CCOC(=O)c1cc(C(=O)c2cccc(C)c2)n2cccc2c1 [II-11, 5-(3-methylbenzoyl) indolizine-7-Ethyl carboxylate]

From patent US20240228487A1, “FUSED HETEROCYCLIC COMPOUND AND APPLICATION THEREOF, PHARMACEUTICAL COMPOSITIONS CONTAINING SAME AND APPLICATION THEREOF” (ZHEJIANG UNIVERSITY, priority 2021, published 2024)
